The source of these data is patent publication US5023240A, “Derivatives of tylosin and 10,11,12,13-tetrahydro tylosin and their use in pharmaceuticals” (Sour Pliva, priority 1987, dated 1991).

Structures are written as SMILES. Values after ≈ are worked out from the molar mass of the structure shown.

Common to all, as to assay type: cell-based
For one test, the system named is Staph. aureus. Kind of test: antimicrobial activity, MIC by agar dilution method, Staph. aureus. More on the design: key to Minimal Inhibitory Concentration: R: resistant. The settings on record: 13 test strains, MIC refers to over 90% of tested strains; for MIC90: Staphylococcus aureus, read-out: Minimal Inhibitory Concentration. Here is the method: (§1) The antimicrobial activity of some compounds of the present invention was tested on the laboratory strain Sarcina lutea and on 50 various strains isolated from fresh patients' samples. The minimal inhibitory concentration (MIC) was determined by the agar dilution method as described by M. D. Finegold and J. W. Martin, Diagnostic Microbiology, Mosby Comp., St. Louis 1982, p. 536-540.

Another test relates to Sarcina lutea. Kind of test: antimicrobial activity, MIC by agar dilution method, Sarcina lutea. As to conditions: Micrococcus luteus, 4 test strains, MIC refers to over 90% of tested strains, read-out: Minimal Inhibitory Concentration. As for the experimental part: as §1
Background: In agar dilution the substance is mixed into plates at graded concentrations.

A further test concerns Strep. pneumoniae. Kind of test: antimicrobial activity, MIC by agar dilution method, Strep. pneumoniae. More on the design: key to Minimal Inhibitory Concentration: R: resistant. As to conditions: 3 test strains, MIC refers to over 90% of tested strains; for MIC90: Streptococcus pneumoniae, read-out: Minimal Inhibitory Concentration. As for the experimental part:
as §1

In the next test the test system is Staph. saproph. Kind of test: antimicrobial activity, MIC by agar dilution method, Staph. saproph. More on the design: key to Minimal Inhibitory Concentration: R: resistant. As to conditions: 6 test strains, MIC refers to over 90% of tested strains; for MIC90: read-out: Minimal Inhibitory Concentration. As for the experimental part:
as §1

The next test concerns Strep. agalact. Kind of test: antimicrobial activity, MIC by agar dilution method, Strep. agalact. As to conditions: 2 test strains, MIC refers to over 90% of tested strains; for MIC90: read-out: Minimal Inhibitory Concentration. More on the design: key to Minimal Inhibitory Concentration: R: resistant. As for the experimental part:
as §1

Another test has as its system Strep. faecalis. Kind of test: antimicrobial activity, MIC by agar dilution method, Strep. faecalis. More on the design: key to Minimal Inhibitory Concentration: R: resistant. The settings on record: 17 test strains, MIC refers to over 90% of tested strains; for MIC90: Enterococcus faecalis, read-out: Minimal Inhibitory Concentration. Here is the method:
as §1

Turning to `CCC1OC(=O)CC(O)C(C)C(OC2OC(C)C(OC3CC(C)(O)C(O)C(C)O3)C(N(C)C)C2O)C(CC=NO)CC(C)C(=O)CCC(C)CC1COC1OC(C)C(O)C(OC)C1OC` (centres unmarked) [XIX, 10,11,12,13-tetrahydro tylosin aldoxime], the MIC90 in the test on Staph. aureus was 8 to 16 µg/mL (≈ 8.55 to 17.1 µM); in the test with Sarcina lutea, 0.5 µg/mL (≈ 0.535 µM); in the test with Strep. pneumoniae, 1 µg/mL (≈ 1.07 µM); in the test with Staph. saproph. it was 8 µg/mL (≈ 8.55 µM).
On to `CCC1OC(=O)CC(O)C(C)C(OC2OC(C)C(OC3CC(C)(O)C(O)C(C)O3)C(N(C)C)C2O)C(CC=NO)CC(C)C(=NO)CCC(C)CC1COC1OC(C)C(O)C(OC)C1OC` (centres unmarked) [XX, 10,11,12,13tetrahydro tylosin dioxime], for which the MIC90 in the test with Staph. aureus was 16 to 32 µg/mL (≈ 16.8 to 33.7 µM); in the test with Sarcina lutea, 1 µg/mL (≈ 1.05 µM); in the test with Strep. pneumoniae it was 2 to 4 µg/mL (≈ 2.1 to 4.21 µM); in the test with Staph. saproph. it was 16 µg/mL (≈ 16.8 µM).
As to `CCC1OC(=O)CC(O)C(C)C(OC2OC(C)C(OC3CC(C)(O)C(O)C(C)O3)C(N(C)C)C2O)C(CCO)CC(C)C(=O)C=CC(C)=CC1COC1OC(C)C(O)C(OC)C1OC` (centres unmarked) [Ia, 20-deoxo-20-hydroxy tylosin, reference compound], the MIC90 in the test with Staph. aureus was 4 to 16 µg/mL (≈ 4.36 to 17.4 µM); in the test on Sarcina lutea, 1 µg/mL (≈ 1.09 µM); in the test on Strep. agalact. it was 16 µg/mL (≈ 17.4 µM); in the test with Strep. faecalis it was 64 µg/mL (≈ 69.7 µM); in the test on Strep. pneumoniae it was 0.5 to 1 µg/mL (≈ 0.545 to 1.09 µM); with Staph. saproph., 1 to 16 µg/mL (≈ 1.09 to 17.4 µM).
In the case of `CCC1OC(=O)CC(O)C(C)C(OC2OC(C)C(OC3CC(C)(O)C(O)C(C)O3)C(N(C)C)C2O)C(CCO)CC(C)C(=NO)C=CC(C)=CC1COC1OC(C)C(O)C(OC)C1OC` (centres unmarked) [XVIII, relomycin oxime], the MIC90 was 64 µg/mL (≈ 68.6 µM) with Staph. aureus; 0.5 µg/mL (≈ 0.536 µM) with Sarcina lutea; 64 µg/mL (≈ 68.6 µM) in the test on Strep. agalact.; 0.5 µg/mL (≈ 0.536 µM) in the test on Strep. pneumoniae; 4 to 16 µg/mL (≈ 4.29 to 17.1 µM) with Staph. saproph.. Besides, the “Minimal Inhibitory Concentration” value in the test with Strep. faecalis is recorded as “R”.
`CCC1OC(=O)CC(O)C(C)C(OC2OC(C)C(OC3CC(C)(O)C(O)C(C)O3)C(N(C)C)C2O)C(CC=NO)CC(C)C(=O)C=CC(C)=CC1COC1OC(C)C(O)C(OC)C1OC` (centres unmarked) [XII, Tylosin aldoxime]: the MIC90 in the test with Staph. aureus was 1 to 4 µg/mL (≈ 1.07 to 4.3 µM); in the test with Sarcina lutea, 0.5 µg/mL (≈ 0.537 µM); in the test on Strep. agalact. it was 0.5 µg/mL (≈ 0.537 µM); in the test on Strep. faecalis, 1 to 4 µg/mL (≈ 1.07 to 4.3 µM); in the test with Strep. pneumoniae it was 0.5 µg/mL (≈ 0.537 µM); in the test with Staph. saproph., 0.5 to 2 µg/mL (≈ 0.537 to 2.15 µM).
Regarding `CCC1OC(=O)CC(O)C(C)C(OC2OC(C)C(OC3CC(C)(O)C(O)C(C)O3)C(N(C)C)C2O)C(CC=O)CC(C)C(O)CCC(C)CC1COC1OC(C)C(O)C(OC)C1OC` (centres unmarked) [VI, 9-deoxo-9-hydroxy-10,11,12,13-tetrahydro tylosin], the MIC90 was 4 µg/mL (≈ 4.34 µM) in the test on Staph. aureus; 0.5 µg/mL (≈ 0.542 µM) with Sarcina lutea; 2 to 8 µg/mL (≈ 2.17 to 8.68 µM) in the test on Strep. agalact.; 8 to 32 µg/mL (≈ 8.68 to 34.7 µM) with Strep. faecalis; 0.5 µg/mL (≈ 0.542 µM) in the test on Strep. pneumoniae; 2 to 4 µg/mL (≈ 2.17 to 4.34 µM) in the test on Staph. saproph..
As to `CCC1OC(=O)CC(O)C(C)C(OC2OC(C)C(OC3CC(C)(O)C(O)C(C)O3)C(N(C)C)C2O)C(CC=O)CC(C)C(=O)CCC(C)CC1COC1OC(C)C(O)C(OC)C1OC` (centres unmarked) [II, 10,11,12,13-tetrahydro tylosin], the MIC90 with Staph. aureus was 2 to 4 µg/mL (≈ 2.17 to 4.35 µM); with Sarcina lutea it was 0.5 µg/mL (≈ 0.543 µM); with Strep. agalact., 1 to 2 µg/mL (≈ 1.09 to 2.17 µM); with Strep. faecalis, 4 to 8 µg/mL (≈ 4.35 to 8.69 µM); in the test with Strep. pneumoniae it was 0.5 µg/mL (≈ 0.543 µM); in the test on Staph. saproph., 1 to 2 µg/mL (≈ 1.09 to 2.17 µM).
As for `CCC1OC(=O)CC(O)C(C)C(OC2OC(C)C(OC3CC(C)(O)C(O)C(C)O3)C(N(C)C)C2O)C(CCO)CC(C)C(=O)CCC(C)CC1COC1OC(C)C(O)C(OC)C1OC` (centres unmarked) [III, 10,11,12,13-tetrahydro relomycin], the MIC90 amounted to 32 µg/mL (≈ 34.7 µM) with Staph. aureus and 1 µg/mL (≈ 1.08 µM) in the test on Sarcina lutea. For the same compound, the “Minimal Inhibitory Concentration” value in the test on Strep. agalact., in the test on Strep. faecalis, in the test on Strep. pneumoniae and with Staph. saproph. was “R” throughout.
In the case of `CCC1OC(=O)CC(O)C(C)C(OC2OC(C)C(OC3CC(C)(O)C(O)C(C)O3)C(N(C)C)C2O)C(CCO)CC(C)C(=NO)CCC(C)CC1COC1OC(C)C(O)C(OC)C1OC` (centres unmarked) [XXIII, 10,11,12,13-tetrahydro relomycin oxime], the “Minimal Inhibitory Concentration” value with Staph. aureus, in the test on Strep. agalact., with Strep. faecalis and in the test on Staph. saproph. was “R” in each case. Moreover, the MIC90 stood at 0.5 µg/mL (≈ 0.534 µM) in the test on Sarcina lutea and 64 µg/mL (≈ 68.3 µM) in the test on Strep. pneumoniae.
